pIC50: −log10 of the molar value. “And” between values parts separate entries of the source, which are not always exact repeats. Equal values may be shown once.
Tests used:
[1] = system: PBMC of healthy individuals; assay: Viability of healthy donor cells in suspension culture; type: cell-based; details: Homo sapiens, 48 h, read-out: IC50 HD Suspension
Text: (§1) Hematological cell lines were acquired from the Leibniz Institute DSMZ-German Collection of Microorganisms and Cell Cultures (www.dsmz.de). Sixteen patients diagnosed with chronic lymphocytic leukemia at the Division of Hematology and Hemostaseology at the Vienna General Hospital and four healthy donors were included in the study. All participants signed informed consent according to the Declaration of Helsinki (Ethics Committee Nr: EK 1722/2012). Peripheral blood mononuclear cells (PBMC) were isolated using standardized Ficoll-Hypaque gradient centrifugation (Seromed, Berlin, Germany) and stored in liquid nitrogen until use. […]
(§2) Primary cells were incubated at a density of 300,000 cells per well in 96-well plates in a total volume of 100 μl of Gibco RPMI 1640+L-glutamine (PAA Laboratories) supplemented with 20% FBS gold with increasing concentrations of compounds for 48 h. […] Viability was measured using CellTiter-Blue Cell Viability Assay (Promega, Madison, Wis., USA) following the instructions of the manufacturers. Experiments with primary cells were done in triplicates, IC50 values were calculated from the mean values of all samples used in the various experiments using GraphPad Prism 5 software. […]

[2] = system: Jurkat; assay: Viability test on Jurkat cells; type: cell-based, human
Method: (§3) JURKAT and CCRF-CEM (T-cell acute lymphoblastic leukemia), HL60 and K562 representing acute and chronic myeloid leukemia, respectively, the chronic lymphocytic leukemia cell line MEC-1, and the diffuse large B-cell lymphoma cell line U-2940 were cultured in Gibco RPMI 1640+GlutaMAX (Life Technologies, Carlsbad, Calif., USA) supplemented with 10% fetal bovine serum gold (FBS gold; PAA Laboratories, Pasching, Austria) and 1% PenStrep (100 U/ml penicillin and 100 μg/ml streptomycin; PAA Laboratories), and maintained at 37° C. in humidified atmosphere with 5% CO2. […]
(§4) All experiments with hematological cell lines were done using phenol red-free RPMI 1640+L-glutamine (PAA Laboratories) supplemented with 1% PenStrep and 10% FBS gold, except experiments with OCI-Ly7 which were carried out in Gibco IMEM+GlutaMAX and 25 mM HEPES containing 20% FBS gold and 1% PenStrep. Cells were incubated in triplicates with increasing concentrations of the compounds for 48 h, changes in viability were determined using the cell proliferation and cytotoxicity assays EZ4U (Biomedica Group, Austria) and CellTiter-Blue Cell Viability Assay (Promega, Madison, Wis., USA) following instructions of the manufacturers. IC50 values were calculated from two independent experiments using GraphPad Prism 5 software. […]

[3] = system: U-2940; assay: Viability test on U-2940 cells, 48 h; type: cell-based, human; details: 48 h incubation; nd = no significant cytotoxic activity up to 100 μM
Method: (§5) JURKAT and CCRF-CEM (T-cell acute lymphoblastic leukemia), HL60 and K562 representing acute and chronic myeloid leukemia, respectively, the chronic lymphocytic leukemia cell line MEC-1, and the diffuse large B-cell lymphoma cell line U-2940 were cultured in Gibco RPMI 1640+GlutaMAX (Life Technologies, Carlsbad, Calif., USA) supplemented with 10% fetal bovine serum gold (FBS gold; PAA Laboratories, Pasching, Austria) and 1% PenStrep (100 U/ml penicillin and 100 μg/ml streptomycin; PAA Laboratories), and maintained at 37° C. in humidified atmosphere with 5% CO2. The diffuse large B-cell lymphoma cell line OCI-LY7 was cultured in Gibco IMDM+GlutaMAX and 25 mM HEPES (Life Technologies) containing 20% FBS gold and 1% PenStrep.
(§6) All experiments with hematological cell lines were done using phenol red-free RPMI 1640+L-glutamine (PAA Laboratories) supplemented with 1% PenStrep and 10% FBS gold, except experiments with OCI-Ly7 which were carried out in Gibco IMEM+GlutaMAX and 25 mM HEPES containing 20% FBS gold and 1% PenStrep. Cells were incubated in triplicates with increasing concentrations of the compounds for 48 h, changes in viability were determined using the cell proliferation and cytotoxicity assays EZ4U (Biomedica Group, Austria) and CellTiter-Blue Cell Viability Assay (Promega, Madison, Wis., USA) following instructions of the manufacturers. IC50 values were calculated from two independent experiments using GraphPad Prism 5 software.
(§7) Initially, compounds were biologically tested in six concentration steps (0.1 μM; 1 μM; 5 μM; 10 μM; 50 μM; and 100 μM) using the CellTiter-Blue Cell Viability Assay (Promega, Madison, Wis., USA) and an incubation time of 48 hours. […] IC50 values were calculated from at least two independent experiments with 3 replicates each. In order to evaluate the biologic activity of the new compounds, cytotoxicity was compared to that of fludarabine, an already approved drug for the treatment of various B-cell malignancies. […] Differences in IC50 values for the different cell types can be explained by the biological and genetic particularities of each subtype of B-cell Non-Hodgkin lymphoma (Stacchini A et al. Leukemia Res 1999, 23, 127-136; Sambade C et al. Int J Cancer 2006, 118, 555-563; Chang H et al. Leukemia lymphoma 1995, 19, 165-171; Tweeddale M E et al. Blood 1987, 69, 1307-1314; Tweeddale M et al. Blood 1989, 74, 572-578).

[4] = system: OCI-Ly7; assay: Viability test on OCI-Ly7 cells, 48 h; type: cell-based, human; details: 48 h incubation; nd = no significant cytotoxic activity up to 100 μM
Method: as §5, §6, §7

[5] = system: SU-DHL9; assay: Viability test on SU-DHL9 cells; type: cell-based, human
Method: as §6
Hematologic malignancies are highly heterogeneous in their biology and behavior. This and the fact that some patient groups are resistant to therapy underlines the urgent need for new therapeutic drugs. Compound 15 has therefore been tested on other cell lines representing a variety of hematologic neoplasms: two T-cell acute leukemia cell lines (CCRF, Jurkat), two myeloid leukemia cell lines (HL60, K562), and two additional B-cell lines (SU-DHL6, SU-DHL9). Viability was assessed as described in the methods section above. […] An exception was the chronic myeloid leukemia line K562. […]

[6] = system: PBMC of chronic lymphocytic leukemia (CLL) patients; assay: Viability of primary CLL cells in suspension culture; type: cell-based; details: Homo sapiens, CLL cell, 48 h
Text: as §1, §2

[7] = system: HL60; assay: Viability test on HL60 cells; type: cell-based, human
Method: as §3, §4

[8] = system: PBMC of CLL patients cultured over a layer of mouse fibroblast cells (M2-10B4); assay: Viability of CLL cells in co-culture with M2-10B4 fibroblast cells; type: cell-based; details: Homo sapiens, M210B4, 48 h
Method: Primary cells were incubated at a density of 300,000 cells per well in 96-well plates in a total volume of 100 μl of Gibco RPMI 1640+L-glutamine (PAA Laboratories) supplemented with 20% FBS gold with increasing concentrations of compounds for 48 h. For co-culture experiments, 150,000 M2-10B4 mouse fibroblast cells were seeded into 12-well plates and allowed to form a confluent layer over night. Supernatant was replaced by 3 million primary cells in a total volume of 1 ml medium and incubated with increasing concentrations of compounds for 48 h. Viability was measured using CellTiter-Blue Cell Viability Assay (Promega, Madison, Wis., USA) following the instructions of the manufacturers. Experiments with primary cells were done in triplicates, IC50 values were calculated from the mean values of all samples used in the various experiments using GraphPad Prism 5 software.
As a last step, it has been sought to evaluate the cytotoxicity of compound 15 in primary cells and compare its activity to the impact of fludarabine. To this end, peripheral blood mononuclear cells (PBMC) of chronic lymphocytic leukemia (CLL) patients were used in two experimental settings. They were cultured in conventional suspension culture being exposed to increasing concentrations of drug. […]

Q: With `CCOc1ccccc1C(=O)/C=C/c1cc2ccccc2[nH]1` [Compound 15, 1-(2-Ethoxyphenyl)-3-(1H-indole-2-yl)-2-propen-1-one] as the molecule, how does the pIC50 [1] read?
A: The pIC50 was 4.87.

Q: And the pIC50 ([2]; Homo sapiens, T-cell acute leukemia, nd = no significant cytotoxic activity up to 100 μM)?
A: The pIC50 was 7.40.

Q: And the “viability, % of control” value ([2]; at concentrations <1 μM)?
A: The value was “less than 30 % of control”.

Q: What about the pIC50 [3] of the same molecule?
A: The pIC50 was 7.30 and 7.28.

Q: What about the pIC50 [4] of the same molecule?
A: The pIC50 was 5.54.

Q: And the pIC50 ([5]; Homo sapiens, B-cell lymphoma, nd = no significant cytotoxic activity up to 100 μM)?
A: Its pIC50 is 7.52.

Q: And the “viability, % of control” value ([5]; SU-DHL9, at concentrations <1 μM)?
A: The value was “less than 30 % of control”.

Q: And the pIC50 [6]?
A: The pIC50 was 5.93.

Q: What about the “viability, % of control” value ([7]; HL60, at concentrations <1 μM) of the same molecule?
A: Its value is “less than 30 % of control”.

Q: What about the pIC50 ([7]; Homo sapiens, HL-60, myeloid leukemia, nd = no significant cytotoxic activity up to 100 μM) of the same molecule?
A: The pIC50 was 7.70.

Q: And the pIC50 [8]?
A: Its pIC50 is 6.17.

From patent US10280156B2, “Heteroaromatic chalcone derivatives and their medical use” (Medizinische Universität Wien, priority 2014, dated 2019)
